Patent publication US8853193B2, “Thienopyrimidines containing a substituted alkyl group for pharmaceutical compositions” (Boehringer Ingelheim International GmbH, priority 2010, dated 2014)
Structures can show the parent of a compound that is named as a salt.

Target: human Mnk2a (Homo sapiens (Human), UniProt Q9HBH9)
Test: Mnk2a in vitro kinase assay (indirect competitive fluorescence polarization)
Type: biochemical
Conditions: pre-activated GST-Mnk2a 2.5 nM, 20 μM ATP, 30 μM substrate peptide; read-out: MNK2 IC50
Procedure: Inhibitory potency of compounds against Mnk1, Mnk2a and other kinases was assessed with assays based on a format known to those skilled in the art as the indirect (competitive) fluorescence polarization. The assay detection system comprises a small fluorophore-labeled phospho-peptide (termed ligand) bound to a phospho-specific antibody. The product generated by the kinase reaction competes with the ligand for antibody binding. Based on the larger molecular volume of the bound ligand, which results in a lower rotation rate in solution, its emitted light has a higher degree of polarization than the one from the free ligand.
In brief, the open reading frames of human Mnk1 and Mnk2a were amplified from cDNA using the forward/reverse primer pairs
(utilized restriction sites underlined), respectively, and cloned into the BamHI and SalI sites of the vector pGEX-4T1 (Amersham, Sweden, cat. no. 27-4580-01). These constructs allow prokaryotic expression of Mnk1 or Mnk2a as fusion protein with a N-terminal glutathione S-transferase (GST) tag, referred to as GST-Mnk1 or GST-Mnk2a. The following expression and purification procedure was identical for GST-Mnk1 and GST-Mnk2a, referring in general to GST-Mnk, when not distinguishing between the two isoforms. Expression of GST-Mnk was in E. coli BL21 (Merck Biosciences, Germany, cat. no. 69449). Cells were grown in LB-Bouillon (Merck, Germany, cat. no. 1.10285) supplemented with 100 μg/ml ampicillin (Sigma, Germany, cat. no. A9518) at 37° C. […] Cells harvested by centrifugation were resuspended in 10 ml lysis buffer (50 mM tris(hydroxymethyl)aminomethane hydrochloride (Tris/HCl, Sigma, Germany, cat. no. T5941) pH 7.5, 300 mM sodium chloride (NaCl, Sigma, Germany, cat. no. S7653), 5% (w/v) glycerol (Sigma, Germany, cat. no. G5516), 3 mM DTT dithiotreitol (DTT, Sigma, Germany, cat. no. D9779)) per gram wet weight cell pellet. Lysates were prepared by disruption of cells with a sonifier and subsequent clearing by centrifugation at 38000 g for 45 min at 4° C.
The lysate was applied to a GSTPrep FF 16/10 column (Amersham, Sweden, cat. no. 17-5234-01) equilibrated with lysis buffer. Removal of unbound material was with 3 column volumes (CV) lysis buffer. Elution was with 2 CV of elution buffer (50 mM Tris/HCl pH 7.5, 300 mM NaCl, 5% (w/v) glycerol, 20 mM glutathione (Sigma, Germany, cat. no. G4251)). Peak fractions were pooled and the protein transferred into storage buffer (50 mM Tris/HCl pH 7.5, 200 mM NaCl, 0.1 mM ethylene glycol[…] bis(2-aminoethylether)-N,N,N′,N′-tetraacetic acid (EGTA, Aldrich, Germany, cat. no. 23, 453-2), 1 mM DTT, 10% (w/v) glycerol, 0.5 M sucrose (Sigma, Germany, cat. no. S0389) by gel filtration on a PD10 desalting column (Amersham, Sweden, cat. no. 17-0851-01). Aliquots were shock frozen in liquid nitrogen and stored at −80° C.
Activation of Mnk1 and Mnk2a was at a concentration of 2.5 μM of either purified GST-Mnk1 or GST-Mnk2a by incubation with 150 nM pre-activated NHis-ERK2 (see ERK2 assay for preparation) and 50 μM adenosine triphosphate (ATP, Sigma, cat. no. A2699) in a buffer comprising 20 mM N-(2-hydroxyethyl)piperazine-N′-(2-ethanesulfonic acid) (HEPES, Fluka, Germany, cat. no 54459)/potassium hydroxide (KOH, Roth, Germany, cat. no 6751.1) pH 7.4, 10 mM magnesium chloride (MgCl2, Sigma, Germany, cat. no. M2670), 0.25 mM DTT, 0.05% (w/v) polyoxyethylene 20 stearylether (Brij 78, Sigma, Germany, cat. no. P4019) (HMDB buffer) for 45 min at 30° C. After the incubation, the preparation was aliquoted into single-use samples, shock frozen in liquid nitrogen, stored at −80° C. and utilized for Mnk1 or Mnk2a kinase assays as detailed below.
The serine residue phosphorylated by Mnk kinases is underlined.

Sequence of human Mnk2a (Q9HBH9 whole entry): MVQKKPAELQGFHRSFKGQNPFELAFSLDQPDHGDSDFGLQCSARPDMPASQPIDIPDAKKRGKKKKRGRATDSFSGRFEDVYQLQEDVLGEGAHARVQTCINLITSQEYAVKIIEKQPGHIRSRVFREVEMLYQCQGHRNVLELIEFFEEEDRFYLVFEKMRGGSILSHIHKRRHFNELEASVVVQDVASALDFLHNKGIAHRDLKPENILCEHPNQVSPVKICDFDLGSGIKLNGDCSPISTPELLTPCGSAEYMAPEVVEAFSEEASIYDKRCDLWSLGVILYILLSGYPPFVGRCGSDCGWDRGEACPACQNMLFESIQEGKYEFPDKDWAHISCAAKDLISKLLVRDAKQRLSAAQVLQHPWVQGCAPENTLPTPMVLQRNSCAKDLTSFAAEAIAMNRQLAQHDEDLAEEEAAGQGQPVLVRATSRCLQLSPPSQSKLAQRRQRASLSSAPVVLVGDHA

SMILES	IC50 [nM]
Cc1c(C(=O)NCCO)sc2ncnc(Nc3ccc(F)cc3OC(C)C(=O)NCCCN)c12 (centres unmarked) [Compound 57, 4-{2-[1-(3-Amino-propylcarbamoyl)-ethoxy]-4-fluoro-phenylamino}-5-methyl-thieno[2,3-d]pyrimidine-6-carboxylic acid (2-hydroxy-ethyl)-amide]	110
Cc1c(C(=O)NCCCN2CCCC2)sc2ncnc(Nc3ccc(C#N)cc3OC(CF)CF)c12 [Compound 48, 4-[4-Cyano-2-(2-fluoro-1-fluoromethyl-ethoxy)-phenylamino]-5-methyl-thieno[2,3-d]pyrimidine-6-carboxylic acid (3-pyrrolidin-1-yl-propyl)-amide]	12
Cc1c(C(=O)NCCCN2CCCC2)sc2ncnc(Nc3cccnc3OC(C)C)c12 [Compound 36-1, 4-(2-Isopropoxypyridin-3-ylamino)-5-methyl-N-(3-(pyrrolidin-1-yl)propyl)thieno[2,3-d]pyrimidine-6-carboxamide]	35
CNC(=O)c1sc2ncnc(Nc3ccc(F)cc3OC(CF)CF)c2c1C [Compound 23-4, 4-(2-(1,3-difluoro-propan-2-yloxy)-4-fluorophenylamino)-N,5-dimethylthieno [2,3d]pyrimidine-6-carboxamide]	8
Cc1c(C(=O)NCCCN(C)C)sc2ncnc(Nc3cccnc3OCCO)c12 [Compound 29-4, N-(3-(dimethyl-amino)propyl)-4-(2-(2-hydroxy-ethoxy)pyridin-3-ylamino)-5-methylthieno[2,3-d]pyrimidine-6-carboxamide hydrochloride]	288
Cc1c(C(=O)NCCCCO)sc2ncnc(Nc3cccnc3OC(C)C)c12 [Compound 36-2, N-(4-Hydroxybutyl)-4-(2-isopropoxypyridin-3-ylamino)-5-methylthieno[2,3-d]pyrimidine-6-carboxamide]	42
CCNC(=O)C(C)Oc1cc(F)ccc1Nc1ncnc2sc(C(=O)OC)c(C)c12 (centres unmarked) [Compound 61, 4-[2-(1-Ethylcarbamoyl-ethoxy)-4-fluoro-phenylamino}-5-methylthieno[2,3d]pyrimidine-6-carboxylic acid methyl ester]	77
Cc1c(C(=O)NCCO)sc2ncnc(Nc3ccc(F)cc3OCCO)c12 [Compound 32-33]	65
COCC(C)Oc1cc(F)ccc1Nc1ncnc2sc(C(=O)O)c(C)c12 (centres unmarked) [Compound 32-10]	18
Cc1c(C(=O)NCCCN2CCCC2)sc2ncnc(Nc3ccc(F)cc3OC(CF)CF)c12 [Compound 23-10, 4-(2-(1,3-difluoro-propan-2-yloxy)-4-fluorophenylamino)-5-methyl-N-(3-(pyrrolidin-1-yl)propyl)thieno[2,3-d]pyrimidine-6-carboxamide]	7
COC(=O)c1sc2ncnc(Nc3ccc(F)cc3OC(C)CCNC(=O)C(C)C)c2c1C (centres unmarked) [Compound 13-3, Methyl 4-(4-fluoro-2-(4-isobutyramido-butan-2-yloxy)-phenylamino)-5-methylthieno[2,3-d]pyrimidine-6-carboxylate]	677
Cc1c(C(N)=O)sc2ncnc(Nc3cccnc3OCC3CC3(F)F)c12 (centres unmarked) [Compound 34-4]	15
Cc1c(C(=O)NCCCN(C)C)sc2ncnc(Nc3cccnc3OCC3CC3(F)F)c12 (centres unmarked) [Compound 34, 4-(2-((2,2-Difluorocyclopropyl)methoxy)pyridin-3-ylamino)-N-(3-(dimethylamino)propyl)-5-methylthieno[2,3-d]pyrimidine-6-carboxamide hydrochloride]	54
Cc1c(C(=O)NCC2CNCCO2)sc2ncnc(Nc3cccnc3OC(C)C)c12 (centres unmarked) [Compound 36-5, 4-(2-Isopropoxypyridin-3-ylamino)-5-methyl-N-(morpholin-2ylmethyl) thieno[2,3-d]pyrimidine-6-carboxamide]	25
COCC(C)Oc1cc(F)ccc1Nc1ncnc2sc(C(=O)NCCCN(C)C)c(C)c12 (centres unmarked) [Compound 32-35]	35
Cc1c(C(=O)NCC#CCN(C)C)sc2ncnc(Nc3ccc(C#N)cc3OC(CF)CF)c12 [Compound 52, 4-(4-Cyano-2-(2-fluoro-1-fluoromethyl-ethoxy)-phenylamino]-5-methyl-thieno[2,3-d]pyrimidine-6-carboxylic acid (4-dimethylamino-but-2-ynyl)-amide]	25
COCC(C)Oc1cc(F)ccc1Nc1ncnc2sc(C(N)=O)c(C)c12 (centres unmarked) [Compound 32-37]	8
CCNC(=O)c1sc2ncnc(Nc3cccnc3OC(C)C)c2c1C [Compound 36-3]	26
Cc1c(C(=O)NCCCN(C)C)sc2ncnc(Nc3cccnc3OC(C)CCN)c12 (centres unmarked) [Compound 16-3, 4-(2-(4-Aminobutan-2yloxy)pyridin-3-ylamino)-N-(3-(dimethylamino)propyl)-5-methylthieno[2,3-d]pyrimidine-6-carboxamide bis(2,2,2-trifluoroacetate)]	74
Cc1c(C(=O)NCCCN(C)C)sc2ncnc(Nc3ccc(F)cc3OC(CF)CF)c12 [Compound 23-6, 4-(2-(1,3-difluoro-propan-2-yloxy)-4-fluorophenylamino)-N-(3-(dimethylamino)-propyl)-5-methyl-thieno[2,3-d]-pyrimidine-6-carboxamide]	10
COC(=O)c1sc2ncnc(Nc3ccc(F)cc3OC(CN)CNS(C)(=O)=O)c2c1C (centres unmarked) [Compound 19-2, Methyl 4-(2-(1-amino-3-(methyl-sulfonamido)-propan-2-yloxy)-4-fluoro-phenylamino)-5-methylthieno[2,3-d]pyrimidine-6-carboxylate trifluoroacetate]	1170
Cc1c(C(=O)NCCO)sc2ncnc(Nc3cccnc3OC(C)CCN)c12 (centres unmarked) [Compound 42, 4-[2-(3-Amino-1-methyl-propoxy)-3pyridin-3-ylamino]-5-methyl-thieno[2,3-d]pyrimidine-6-carboxylic acid (2-hydroxy-ethyl)-amide]	70
Cc1c(C(=O)NCCCN(C)C)sc2ncnc(Nc3ccc(F)cc3OCC(F)F)c12 [Compound 32-19]	23
COC(=O)c1sc2ncnc(Nc3ccc(F)cc3OC(CF)CF)c2c1C [Compound 23-1, Methyl 4-(2-(1,3-difluoropropan-2-yloxy)-4-fluorophenylamino)-5-methyl-thieno[2,3-d]pyrimidine-6-carboxylate]	78
CNC(=O)c1sc2ncnc(Nc3cccnc3OC(C)C(F)(F)F)c2c1C (centres unmarked) [Compound 21-6, N-Methyl-5-methyl-4-(2-(1,1,1-trifluoro-propan-2-yloxy)-pyridin-3-yl-amino)thieno[2,3-d]pyrimidine-6-N-methylcarboxamide]	12
Cc1c(C(=O)NCCO)sc2ncnc(Nc3cccnc3OCC(F)F)c12 [Compound 30-4, 4-(2-(2,2-difluoroethoxy)-pyridin-3-ylamino)-N-(2-hydroxy-ethyl)-5-methylthieno [2,3-d]pyrimi-dine-6-carboxamide]	48
Cc1c(C(=O)NCCCN(C)C)sc2ncnc(Nc3ccc(F)cc3OC(CO)CO)c12 [Compound 32-31]	146
CCNC(=O)C(C)Oc1cc(F)ccc1Nc1ncnc2sc(C(N)=O)c(C)c12 (centres unmarked) [Compound 31-5, 4-(2-(1-(Ethylamino)-1-oxopropan-2-yloxy)-4-fluorophenylamino)-5-methyl-thieno[2,3-d]pyrimidine-6-carboxamide]	11
Cc1c(C(=O)NCCCN(C)C)sc2ncnc(Nc3ccc(F)cc3OC(C)C#N)c12 (centres unmarked) [Compound 63]	17
